{"source": "patent US6469028B1", "about": "“Synthesis and use of retinoid compounds having negative hormone and/or anatgonist activities” (Allergan, Inc., priority 1995, dated 2002)", "experiment_in_all_cases": "Holoreceptor transactivation assay", "format_in_all_cases": "cell-based", "key": {"RXRα": {"molecular_target": "T1, RXRα (Homo sapiens, UniProt P19793)", "T1 construct": "expressed in transfected cells; host or cells: CV1 cells", "T1 sequence (P19793 1-462)": "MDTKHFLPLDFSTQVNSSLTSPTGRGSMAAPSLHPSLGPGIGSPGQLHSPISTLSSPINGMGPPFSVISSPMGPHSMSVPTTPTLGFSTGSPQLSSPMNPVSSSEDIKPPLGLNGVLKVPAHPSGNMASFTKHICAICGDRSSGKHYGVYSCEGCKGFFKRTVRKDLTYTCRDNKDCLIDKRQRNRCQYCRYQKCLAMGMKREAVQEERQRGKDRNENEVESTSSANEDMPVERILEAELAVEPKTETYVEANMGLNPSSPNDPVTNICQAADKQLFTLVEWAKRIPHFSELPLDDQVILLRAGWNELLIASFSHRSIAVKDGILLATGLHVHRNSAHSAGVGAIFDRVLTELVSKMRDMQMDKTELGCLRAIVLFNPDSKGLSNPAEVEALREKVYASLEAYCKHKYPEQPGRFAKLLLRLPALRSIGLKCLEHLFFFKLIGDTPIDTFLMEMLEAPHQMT", "details": "relative to all trans retinoic acid; read-out: Transactivation Assay Efficacy (% of RA activity) RXRα", "text": "(§1) A holoreceptor transactivation assay and a ligand binding assay which measure the antagonist/agonist like activity of the compounds of the invention, or their ability to bind to the several retinoid receptor subtypes, respectively, are described in published PCT Application No. WO93/11755 (particularly on pages 30-33 and 37-41) published on Jun. 24, 1993, the specification of which is also incorporated herein by reference. A description of the holoreceptor transactivation assay is also provided below.\n(§2) CV1 cells (5,000 cells/well) were transfected with an RAR reporter plasmid MTV-TREp-LUC (50 ng) along with one of the RAR expression vectors (10 ng) in an automated 96-well format by the calcium phosphate procedure of Heyman et al. Cell 68: 397-406. For RXR-α and RXR-γ transactivation assays, an RXR-responsive reporter plasmid CRBPII-tk-LUC (50 ng) along with the appropriate RXR expression vectors (10 ng) was used substantially as described by Heyman et al. above, and Allegretto et al. J. Biol. Chem. 268: 26625-26633. For RXR-β transactivation assays, an RXR-responsive reporter plasmid CPRE-tk-LUC ([…]) along with RXR-β expression vector ([…]) was used as described in above. These reporters contain DRI elements from human CRBPII and certain DRI elements from promotor, respectively (see Mangelsdorf et al. The Retinoids: Biology Chemistry and Medicine, pp. 319-349, Raven Press Ltd., New York and Heyman et al., cited above). A β-galactosidase (50 ng) expression vector was used as an internal control in the transfections to normalize for variations in transfection efficiency. The cells were transfected in triplicate for 6 hours, followed by incubation with retinoids for 36 hours, and the extracts were assayed for luciferase and […] activities. The detailed experimental procedure for holoreceptor transactivations has been described in Heyman et al. above, and Allegretto et al. cited above. The results obtained in this assay are expressed in EC50 numbers, as they are also in the chimeric receptor transactivation assay. The Heyman et al. Cell 68: 397-406, Allegretto et al. J. Biol. Chem. 268: 26625-26633, and Mangelsdorf et al. The Retinoids: Biology, Chemistry, and Medicine, pp. 319-349, Raven Press Ltd., New York, are expressly incorporated herein by reference. The results of ligand binding assay are expressed in Kd numbers. (See Cheng et al. Biochemical Pharmacology 22: 3099-3108, expressly incorporated herein by reference.)"}, "RXRβ": {"system": "RXRβ", "details": "relative to all trans retinoic acid", "text": "as §1, §2"}, "RXRγ": {"molecular_target": "T2, RXRγ (Mus musculus, UniProt P28705)", "T2 construct": "expressed in transfected cells; host or cells: CV1 cells", "T2 sequence (P28705 1-463)": "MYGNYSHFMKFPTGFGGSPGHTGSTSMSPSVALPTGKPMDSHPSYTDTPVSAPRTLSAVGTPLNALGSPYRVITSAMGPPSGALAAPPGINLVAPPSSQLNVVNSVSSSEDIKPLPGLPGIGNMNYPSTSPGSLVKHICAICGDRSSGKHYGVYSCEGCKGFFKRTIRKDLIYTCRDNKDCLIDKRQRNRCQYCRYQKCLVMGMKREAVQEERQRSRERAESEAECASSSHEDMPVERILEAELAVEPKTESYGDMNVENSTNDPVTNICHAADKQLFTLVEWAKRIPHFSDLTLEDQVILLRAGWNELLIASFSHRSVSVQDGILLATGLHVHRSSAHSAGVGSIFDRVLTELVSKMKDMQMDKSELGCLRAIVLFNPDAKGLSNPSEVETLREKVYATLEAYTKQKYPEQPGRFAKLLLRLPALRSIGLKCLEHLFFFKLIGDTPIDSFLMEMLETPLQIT", "details": "relative to all trans retinoic acid; read-out: Transactivation Assay Efficacy (% of RA activity) RXRγ", "text": "as §1, §2"}, "RARβ": {"molecular_target": "T3, RARβ (Homo sapiens, UniProt P10826)", "T3 sequence (P10826 1-448 isoform P10826-2)": "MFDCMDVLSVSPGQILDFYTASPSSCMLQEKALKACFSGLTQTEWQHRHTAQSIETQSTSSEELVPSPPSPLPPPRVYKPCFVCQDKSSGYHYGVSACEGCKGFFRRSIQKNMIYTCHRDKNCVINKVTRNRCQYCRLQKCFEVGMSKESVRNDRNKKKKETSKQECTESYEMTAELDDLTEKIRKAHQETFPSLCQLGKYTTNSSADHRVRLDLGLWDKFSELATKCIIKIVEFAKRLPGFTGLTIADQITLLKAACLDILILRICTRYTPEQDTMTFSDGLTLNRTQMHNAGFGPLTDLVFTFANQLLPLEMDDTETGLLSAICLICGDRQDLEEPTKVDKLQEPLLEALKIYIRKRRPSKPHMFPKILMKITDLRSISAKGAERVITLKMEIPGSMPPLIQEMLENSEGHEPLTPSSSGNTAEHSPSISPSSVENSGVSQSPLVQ", "set-up": "expressed in transfected cells; host or cells: CV1 cells", "details": "relative to all trans retinoic acid; read-out: Transactivation Assay Efficacy (% of RA activity) RARβ", "text": "as §1, §2\nA compound should not cause significant activation of a reporter gene through a given receptor subtype (RAR-α, RAR-β or RAR-γ) in the holoreceptor transactivation assay, in order to qualify as an RAR antagonist with utility in the present invention."}}, "data": [{"smiles": "Cc1ccc(C2=CCC(C)(C)c3ccc(C(=O)Nc4ccc(C(=O)O)cc4)cc32)cc1", "note": "[Compound 36, 4-[[(5,6-Dihydro-5,5-dimethyl-8-(4-methylphenyl)-2-naphthalenyl)carbonyl]amino]-benzoic acid]", "values": [{"measurement": "Emax", "setting": "RXRα", "value": 1, "unit": "%"}, {"measurement": "Transactivation Assay Efficacy (% of RA activity) RXRβ", "setting": "RXRβ", "value": "7.00 % of RA activity"}, {"measurement": "Emax", "setting": "RXRγ", "value": 2, "unit": "%"}, {"measurement": "Emax", "setting": "RARβ", "value": 5, "unit": "%"}]}, {"smiles": "Cc1ccc(C2=CCC(C)(C)c3ccc(C(=O)Oc4ccc(C(=O)O)cc4)cc32)cc1", "note": "[Compound 39, 4-[[(5,6-Dihydro-5,5-dimethyl-8-(4-methylphenyl)-2-naphthalenyl)carbonyl]oxy]-benzoic acid]", "values": [{"measurement": "Emax", "setting": "RXRα", "value": 2, "unit": "%"}, {"measurement": "Transactivation Assay Efficacy (% of RA activity) RXRβ", "setting": "RXRβ", "value": "0.00 % of RA activity"}, {"measurement": "Emax", "setting": "RXRγ", "value": 1, "unit": "%"}, {"measurement": "Emax", "setting": "RARβ", "value": 7, "unit": "%"}]}, {"smiles": "Cc1ccc(C2=CCC(C)(C)c3ccc(C(=O)Nc4ccc(C(=O)O)c(F)c4)cc32)cc1", "note": "[Compound 41, 2-Fluoro-4-[[(5,6-dihydro-5,5-dimethyl-8-(4methylphenyl)-2-naphthalenyl)carbonyl]amino]-benzoic acid]", "values": [{"measurement": "Emax", "setting": "RXRα", "value": 1, "unit": "%"}, {"measurement": "Transactivation Assay Efficacy (% of RA activity) RXRβ", "setting": "RXRβ", "value": "0.00 % of RA activity"}, {"measurement": "Emax", "setting": "RXRγ", "value": 3, "unit": "%"}, {"measurement": "Emax", "setting": "RARβ", "value": 5, "unit": "%"}]}, {"smiles": "Cc1ccc(C2=CCC(C)(C)c3ccc(/C=C/c4ccc(C(=O)O)cc4)cc32)cc1", "note": "[Compound 45]", "values": [{"measurement": "Emax", "setting": "RXRα", "value": 3, "unit": "%"}, {"measurement": "Transactivation Assay Efficacy (% of RA activity) RXRβ", "setting": "RXRβ", "value": "8.00 % of RA activity"}, {"measurement": "Emax", "setting": "RXRγ", "value": 0, "unit": "%"}, {"measurement": "Emax", "setting": "RARβ", "value": 0, "unit": "%"}]}, {"smiles": "Cc1ccc(C2=CCC(C)(C)c3ccc(N=Nc4ccc(C(=O)O)cc4)cc32)cc1", "note": "[Compound 46b, 4-[(5,6-dihydro-5,5-dimethyl-8-(4-methylphenyl)-2-naphthalenyl)azo]-benzoic acid]", "values": [{"measurement": "Emax", "setting": "RXRα", "value": 2, "unit": "%"}, {"measurement": "Transactivation Assay Efficacy (% of RA activity) RXRβ", "setting": "RXRβ", "value": "0.00 % of RA activity"}, {"measurement": "Emax", "setting": "RXRγ", "value": 4, "unit": "%"}, {"measurement": "Emax", "setting": "RARβ", "value": 5, "unit": "%"}]}, {"smiles": "CC(/C=C/C=C(\\C)c1ccc2c(c1)C(c1ccc(C)cc1)=CCC2(C)C)=C\\C(=O)O", "note": "[Compound 52, (E,E,E)-3-methyl-7-(5,6-dihydro-5,5-dimethyl-8-(4-methylphenyl)-2-naphthalenyl)-2,4,6-octatrienoic acid]", "values": [{"measurement": "Emax", "setting": "RXRα", "value": 0, "unit": "%"}, {"measurement": "Transactivation Assay Efficacy (% of RA activity) RXRβ", "setting": "RXRβ", "value": "0.00 % of RA activity"}, {"measurement": "Emax", "setting": "RXRγ", "value": 10, "unit": "%"}, {"measurement": "Emax", "setting": "RARβ", "value": 15, "unit": "%"}]}, {"smiles": "Cc1ccc(C2=CCC(C)(C)c3ccc(C#Cc4ccc(C(=O)O)cc4)cc32)cc1", "note": "[Compound 60, 4-[(5,6-dihydro-5,5-dimethyl-8-(4-methylphenyl)-2-naphthalenyl)ethynyl]benzoic acid]", "values": [{"measurement": "Emax", "setting": "RXRα", "value": 3, "unit": "%"}, {"measurement": "Transactivation Assay Efficacy (% of RA activity) RXRβ", "setting": "RXRβ", "value": "0.00 % of RA activity"}, {"measurement": "Emax", "setting": "RXRγ", "value": 3, "unit": "%"}, {"measurement": "Emax", "setting": "RARβ", "value": 1, "unit": "%"}]}, {"smiles": "CC(C)(C)c1ccc(C2=CCC(C)(C)c3ccc(C#Cc4ccc(C(=O)O)cc4)cc32)cc1", "note": "[Compound 61, 4-[(5,6-Dihydro-5,5-dimethyl-8-(4-(1,1-dimethylethyl)phenyl)-2-naphthalenyl)ethynyl]benzoic acid]", "values": [{"measurement": "Emax", "setting": "RXRα", "value": 1, "unit": "%"}, {"measurement": "Transactivation Assay Efficacy (% of RA activity) RXRβ", "setting": "RXRβ", "value": "0.00 % of RA activity"}, {"measurement": "Emax", "setting": "RXRγ", "value": 3, "unit": "%"}, {"measurement": "Emax", "setting": "RARβ", "value": 2, "unit": "%"}]}, {"smiles": "Cc1ccc(C2=CCC(C)(C)c3ccc(C(=S)Nc4ccc(C(=O)O)c(F)c4)cc32)cc1", "note": "[Compound 63, 2-fluoro-4-[[(5,6-dihydro-5,5-dimethyl-8-(4-methylphenyl)-2-naphthalenyl)thiocarbonyl]amino]-benzoic acid]", "values": [{"measurement": "Emax", "setting": "RXRα", "value": 1, "unit": "%"}, {"measurement": "Transactivation Assay Efficacy (% of RA activity) RXRβ", "setting": "RXRβ", "value": "0.00 % of RA activity"}, {"measurement": "Emax", "setting": "RXRγ", "value": 1, "unit": "%"}, {"measurement": "Emax", "setting": "RARβ", "value": 2, "unit": "%"}]}, {"smiles": "Cc1ccc(C2=CCC(C)(C)c3cc(C(=O)C=Cc4ccc(C(=O)O)cc4)ccc32)cc1", "note": "[Compound 101, 4-[3-oxo-3-(7,8-dihydro-5-(4-methylphenyl)-8,8-dimethyl-2-naphthalenyl)-1-propenyl]-benzoic acid]", "values": [{"measurement": "Emax", "setting": "RXRα", "value": 1, "unit": "%"}, {"measurement": "Transactivation Assay Efficacy (% of RA activity) RXRβ", "setting": "RXRβ", "value": "0.00 % of RA activity"}, {"measurement": "Emax", "setting": "RXRγ", "value": 3, "unit": "%"}, {"measurement": "Emax", "setting": "RARβ", "value": 4, "unit": "%"}]}, {"smiles": "CC1(C)CC=C(c2ccccc2)c2ccc(C(=O)C=Cc3ccc(C(=O)O)cc3)cc21", "note": "[Compound 103, 4-[3-oxo-3-(7,8-dihydro-5-phenyl-8,8-dimethyl-2-naphthalenyl)-1-propenyl]-benzoic acid]", "values": [{"measurement": "Emax", "setting": "RXRα", "value": 0, "unit": "%"}, {"measurement": "Transactivation Assay Efficacy (% of RA activity) RXRβ", "setting": "RXRβ", "value": "0.0 % of RA activity"}, {"measurement": "Emax", "setting": "RXRγ", "value": 2, "unit": "%"}, {"measurement": "Emax", "setting": "RARβ", "value": 12, "unit": "%"}]}]}
